Where two headings read alike, the source gives them in different places.
Assays:
rat CB2 = biological target: T1, rat CB2 (Rattus norvegicus, UniProt Q9QZN9); experiment: rat CB2 radioligand binding assay ([3H]CP 55,940 competition); design: expressed in transfected cells; host or cells: HEK293; conditions: HEK293 membranes, 0.5 nM [3H]CP 55,940
T1 sequence (Q9QZN9 1-360): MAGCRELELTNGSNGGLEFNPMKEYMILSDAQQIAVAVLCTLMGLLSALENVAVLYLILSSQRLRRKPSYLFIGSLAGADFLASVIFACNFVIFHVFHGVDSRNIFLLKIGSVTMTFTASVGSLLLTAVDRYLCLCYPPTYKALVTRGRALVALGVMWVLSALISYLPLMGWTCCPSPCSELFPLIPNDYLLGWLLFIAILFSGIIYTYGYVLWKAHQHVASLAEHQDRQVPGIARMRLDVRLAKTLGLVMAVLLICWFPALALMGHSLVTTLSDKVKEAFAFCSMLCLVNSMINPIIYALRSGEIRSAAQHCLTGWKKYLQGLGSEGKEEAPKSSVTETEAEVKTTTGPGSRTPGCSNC
Procedure: (§1) The CB1 and CB2 radioligand binding assays described herein are utilized to ascertain the affinity of compounds of the present application for binding to CB2 relative to CB1 receptors.
HEK293 cells stably expressing rat CB2 receptors were grown until a confluent monolayer was formed. Briefly, the cells were harvested and homogenized in TE buffer (50 mM Tris-HCl, 1 mM MgCl2, and 1 mM EDTA) using a polytron for 2×10 second bursts in the presence of protease inhibitors, followed by centrifugation at 45,000×g for 20 minutes. The final membrane pellet was re-homogenized in storage buffer (50 mM Tris-HCl, 1 mM MgCl2, and 1 mM EDTA and 10% sucrose) and frozen at −78° C. until used. Saturation binding reactions were initiated by the addition of membrane preparation (protein concentration of 20 μg/well for rat CB2) into wells of a deep well plate containing [^3H]CP 55,940 (120 Ci/mmol, a nonselective CB agonist commercially available from Tocris) in assay buffer (50 mM Tris, 2.5 mM EDTA, 5 mM MgCl2, and 0.5 mg/mL fatty acid free BSA, pH 7.4). After 45 min incubation at 30° C., binding reaction was terminated by the addition of […] of cold assay buffer followed by rapid vacuum filtration through a UniFilter-96 GF/C filter plates (pre-soaked in 1 mg/mL BSA for 2 hours). The bound activity was counted in a TopCount using Microscint-20. Saturation experiments were conducted with twelve concentrations of [^3H]CP 55,940 ranging from 0.01 to 8 nM. Competition experiments were conducted with 0.5 nM [^3H]CP 55,940 and five concentrations of displacing ligands selected from the range of 0.01 nM to 10 μM. The addition of 10 μM unlabeled CP 55,940 (Tocris, Ellisville, Mo.) was used to assess nonspecific binding.

human CB2 receptors = biological target: T2, human CB2 receptors (Homo sapiens, UniProt P34972); experiment: human CB2 radioligand binding assay ([3H]CP 55,940 competition); conditions: HEK293 membranes, 0.5 nM [3H]CP 55,940
T2 construct: expressed in transfected cells; host or cells: HEK293
T2 sequence (P34972 whole entry): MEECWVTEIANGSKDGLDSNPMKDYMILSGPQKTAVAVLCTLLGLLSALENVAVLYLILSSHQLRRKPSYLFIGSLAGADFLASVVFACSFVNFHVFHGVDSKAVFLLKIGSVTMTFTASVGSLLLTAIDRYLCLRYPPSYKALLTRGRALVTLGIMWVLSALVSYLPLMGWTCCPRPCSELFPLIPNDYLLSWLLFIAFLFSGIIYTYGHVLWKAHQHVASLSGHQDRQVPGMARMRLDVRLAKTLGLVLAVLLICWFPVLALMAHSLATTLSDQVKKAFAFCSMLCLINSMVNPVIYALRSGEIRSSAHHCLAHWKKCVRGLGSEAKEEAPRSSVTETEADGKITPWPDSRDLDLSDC
Procedure: as §1
HEK293 cells stably expressing human CB2 receptors were grown until a confluent monolayer was formed. Briefly, the cells were harvested and homogenized in TE buffer (50 mM Tris-HCl, 1 mM MgCl2, and 1 mM EDTA) using a polytron for 2×10 second bursts in the presence of protease inhibitors, followed by centrifugation at 45,000×g for 20 minutes. The final membrane pellet was re-homogenized in storage buffer (50 mM Tris-HCl, 1 mM MgCl2, and 1 mM EDTA and 10% sucrose) and frozen at −78° C. until used. Saturation binding reactions were initiated by the addition of membrane preparation (protein concentration of 5 μg/well for human CB2) into wells of a deep well plate containing [^3H]CP 55,940 (120 Ci/mmol, a nonselective CB agonist commercially available from Tocris) in assay buffer (50 mM Tris, 2.5 mM EDTA, 5 mM MgCl2, and 0.5 mg/mL fatty acid free BSA, pH 7.4). After 90 min incubation at 30° C., binding reaction was terminated by the addition of 300 μL/well of cold assay buffer followed by rapid vacuum filtration through a UniFilter-96 GF/C filter plates (pre-soaked in 1 mg/mL BSA for 2 hours). The bound activity was counted in a TopCount using Microscint-20. Saturation experiments were conducted with twelve concentrations of [^3H]CP 55,940 ranging from 0.01 to 8 nM. Competition experiments were conducted with 0.5 nM [^3H]CP 55,940 and five concentrations (0.01 nM to 10 μM) of displacing ligands. The addition of 10 μM unlabeled CP 55,940 (Tocris, Ellisville, Mo.) was used to assess nonspecific binding.

Work on `CCCCn1/c(=N/C(=O)c2cc(C#N)ccc2OCC(C)(C)O)cc(C(C)(C)C)n1C` [Example 108, N-[(3E)-2-butyl-5-tert-butyl-1-methyl-1,2-dihydro-3H-pyrazol-3-ylidene]-5-cyano-2-(2-hydroxy-2-methylpropoxy)benzamide] yielded a Ki (rat CB2; read-out: rat CB2 (Ki)) of 288 nM and a Ki (human CB2 receptors; read-out: human CB2 (Ki)) greater than 1000 nM.

Work on `CC[C@H](O)COc1ccc(C(F)(F)F)cc1C(=O)/N=c1\cc(C(C)(C)C)n(C)n1C[C@H]1CCCO1` [Example 109, N-{(3E)-5-tert-butyl-1-methyl-2-[(2R)-tetrahydrofuran-2-ylmethyl]-1,2-dihydro-3H-pyrazol-3-ylidene}-2-{[(2S)-2-hydroxybutyl]oxy}-5-(trifluoromethyl)benzamide] yielded a Ki (rat CB2; rat CB2 (Ki, nM)) of 1.2 nM and a Ki (human CB2 receptors; human CB2 (Ki, nM)) of 1.3 nM.

With `CCC(C)(O)COc1ccc(C(F)(F)F)cc1C(=O)/N=c1\cc(C(C)(C)C)n(C)n1C[C@H]1CCCO1` (stereo partly drawn) [Example 110, N-{(3E)-5-tert-butyl-1-methyl-2-[(2R)-tetrahydrofuran-2-ylmethyl]-1,2-dihydro-3H-pyrazol-3-ylidene}-2-(2-hydroxy-2-methylbutoxy)-5-(trifluoromethyl)benzamide] the Ki (rat CB2; rat CB2 (Ki, nM)) was 1.6 nM and the Ki (human CB2 receptors; human CB2 (Ki, nM)) was 3.5 nM.

With `CC(C)[C@H](O)COc1ccc(C(F)(F)F)cc1C(=O)/N=c1\cc(C(C)(C)C)n(C)n1C[C@H]1CCCO1` [Example 111, N-{(3E)-5-tert-butyl-1-methyl-2-[(2R)-tetrahydrofuran-2-ylmethyl]-1,2-dihydro-3H-pyrazol-3-ylidene}-2-{[(2S)-2-hydroxy-3-methylbutyl]oxy}-5-(trifluoromethyl)benzamide] the Ki (rat CB2; rat CB2 (Ki, nM)) was 1 nM and the Ki (human CB2 receptors; human CB2 (Ki, nM)) was 1.8 nM.

In the case of `Cn1c(C(C)(C)C)c/c(=N\C(=O)c2cc(C(F)(F)F)ccc2OC[C@@H](O)C(C)(C)C)n1C[C@H]1CCCO1` [Example 112, N-{(3E)-5-tert-butyl-1-methyl-2-[(2R)-tetrahydrofuran-2-ylmethyl]-1,2-dihydro-3H-pyrazol-3-ylidene}-2-{[(2S)-2-hydroxy-3,3-dimethylbutyl]oxy}-5-(trifluoromethyl)benzamide], the Ki (rat CB2; rat CB2 (Ki, nM)) is reported as 1.9 nM and the Ki (human CB2 receptors; human CB2 (Ki, nM)) is reported as 6.7 nM.

In the case of `CC(C)c1c/c(=N\C(=O)c2cc(C(F)(F)F)ccc2OCC(C)(C)O)n(CC2CCCC2)n1C` [Example 114, N-[(3E)-2-(cyclopentylmethyl)-5-isopropyl-1-methyl-1,2-dihydro-3H-pyrazol-3-ylidene]-2-(2-hydroxy-2-methylpropoxy)-5-(trifluoromethyl)benzamide], the Ki (rat CB2; rat CB2 (Ki, nM)) is reported as 35 nM and the Ki (human CB2 receptors; read-out: human CB2 (Ki)) is reported as 129 nM.

In the case of `Cn1c(C(C)(C)C)c/c(=N\C(=O)c2cc(C(F)(F)F)ccc2OCC(C)(C)CO)n1C[C@H]1CCCO1` [Example 116, N-{(3E)-5-tert-butyl-1-methyl-2-[(2R)-tetrahydrofuran-2-ylmethyl]-1,2-dihydro-3H-pyrazol-3-ylidene}-2-(3-hydroxy-2,2-dimethylpropoxy)-5-(trifluoromethyl)benzamide], the Ki (rat CB2; read-out: rat CB2 (Ki)) is reported as 199 nM and the Ki (human CB2 receptors; read-out: human CB2 (Ki)) is reported as greater than 1000 nM.

In the case of `CCC(O)(CC)COc1ccc(C(F)(F)F)cc1C(=O)/N=c1\cc(C(C)(C)C)n(C)n1C[C@H]1CCCO1` [Example 117, N-{(3E)-5-tert-butyl-1-methyl-2-[(2R)-tetrahydrofuran-2-ylmethyl]-1,2-dihydro-3H-pyrazol-3-ylidene}-2-(2-ethyl-2-hydroxybutoxy)-5-(trifluoromethyl)benzamide], the Ki (rat CB2; rat CB2 (Ki, nM)) is reported as 69 nM and the Ki (human CB2 receptors; human CB2 (Ki, nM)) is reported as 83 nM.

In the case of `COCCCn1/c(=N/C(=O)c2cc(C(F)(F)F)ccc2OCC(C)(C)O)cc(C(C)(C)C)n1C` [Example 122, N-[(3E)-5-tert-butyl-2-(3-methoxypropyl)-1-methyl-1,2-dihydro-3H-pyrazol-3-ylidene]-2-(2-hydroxy-2-methylpropoxy)-5-(trifluoromethyl)benzamide], the Ki (rat CB2; rat CB2 (Ki, nM)) is reported as 27 nM and the Ki (human CB2 receptors; human CB2 (Ki, nM)) is reported as 91 nM.

`CCCn1/c(=N/C(=O)c2cc(C(F)(F)F)ccc2OCC(C)(C)O)cc(C(C)(C)C)n1C` [Example 125, N-[(3E)-5-tert-butyl-1-methyl-2-propyl-1,2-dihydro-3H-pyrazol-3-ylidene]-2-(2-hydroxy-2-methylpropoxy)-5-(trifluoromethyl)benzamide] gave a Ki (rat CB2; rat CB2 (Ki, nM)) of 86 nM and a Ki (human CB2 receptors; read-out: human CB2 (Ki)) of 211 nM.

Work on `Cn1c(C(C)(C)C)c/c(=N\C(=O)c2cc(Br)ccc2OCC(C)(C)O)n1C[C@H]1CCCO1` [Example 128, 5-bromo-N-{(3E)-5-tert-butyl-1-methyl-2-[(2R)-tetrahydrofuran-2-ylmethyl]-1,2-dihydro-3H-pyrazol-3-ylidene}-2-(2-hydroxy-2-methylpropoxy)benzamide] yielded a Ki (rat CB2; rat CB2 (Ki, nM)) of 4.9 nM and a Ki (human CB2 receptors; human CB2 (Ki, nM)) of 15 nM.

For `CC(=O)NCCOc1ccc(C(F)(F)F)cc1C(=O)/N=c1\cc(C(C)(C)C)n(C)n1CC1CCC1` [Example 130, 2-[2-(acetylamino)ethoxy]-N-[(3E)-5-tert-butyl-2-(cyclobutylmethyl)-1-methyl-1,2-dihydro-3H-pyrazol-3-ylidene]-5-(trifluoromethyl)benzamide], the Ki (rat CB2; rat CB2 (Ki, nM)) was 2.9 nM and the Ki (human CB2 receptors; human CB2 (Ki, nM)) was 5 nM.

For `COC(=O)c1ccc(OCC(C)(C)O)c(C(=O)/N=c2\cc(C(C)(C)C)n(C)n2C[C@H]2CCCO2)c1` [Example 132, methyl 3-[({(3E)-tert-butyl-1-methyl-2-[(2R)-tetrahydrofuran-2-ylmethyl]-1,2-dihydro-3H-pyrazol-3-ylidene}amino)carbonyl]-4-(2-hydroxy-2-methylpropoxy)benzoate], the Ki (rat CB2; read-out: rat CB2 (Ki)) was 51 nM and the Ki (human CB2 receptors; read-out: human CB2 (Ki)) was 127 nM.

With `CSCCCOc1ccc(C(F)(F)F)cc1C(=O)/N=c1\cc(C(C)(C)C)n(C)n1CC1CCC1` [Example 133, N-[(3E)-5-tert-butyl-2-(cyclobutylmethyl)-1-methyl-1,2-dihydro-3H-pyrazol-3-ylidene]-2-[3-(methylthio)propoxy]-5-(trifluoromethyl)benzamide] the Ki (rat CB2; rat CB2 (Ki, nM)) was 15 nM and the Ki (human CB2 receptors; human CB2 (Ki, nM)) was 13 nM.

Compound `Cn1c(C(C)(C)C)c/c(=N\C(=O)c2cc(C(F)(F)F)ccc2OCCCS(C)(=O)=O)n1CC1CCC1` [Example 134, N-[(3E)-5-tert-butyl-2-(cyclobutylmethyl)-1-methyl-1,2-dihydro-3H-pyrazol-3-ylidene]-2-[3-(methylsulfonyl)propoxy]-5-(trifluoromethyl)benzamide] has a Ki (rat CB2; rat CB2 (Ki, nM)) of 40 nM and a Ki (human CB2 receptors; human CB2 (Ki, nM)) of 22 nM.

With `Cn1c(C(C)(C)C)c/c(=N\C(=O)c2cc(C(F)(F)F)ccc2OCC(C)(C)O)n1CCCC(F)(F)F` [Example 135, N-[(3E)-5-tert-butyl-1-methyl-2-(4,4,4-trifluorobutyl)-1,2-dihydro-3H-pyrazol-3-ylidene]-2-(2-hydroxy-2-methylpropoxy)-5-(trifluoromethyl)benzamide] the Ki (rat CB2; rat CB2 (Ki, nM)) was 5.5 nM and the Ki (human CB2 receptors; human CB2 (Ki, nM)) was 23 nM.

With `CCCCn1/c(=N/C(=O)c2cc(C(F)(F)F)ccc2SCC(C)O)cc(C(C)(C)C)n1C` (stereo not drawn) [Example 136, N-[(3E)-2-butyl-5-tert-butyl-1-methyl-1,2-dihydro-3H-pyrazol-3-ylidene]-2-[(2-hydroxypropyl)thio]-5-(trifluoromethyl)benzamide] the Ki (rat CB2; rat CB2 (Ki, nM)) was 16 nM and the Ki (human CB2 receptors; human CB2 (Ki, nM)) was 44 nM.

Work on `CCCCn1/c(=N/C(=O)c2cc(C(F)(F)F)ccc2SCC(C)(C)O)cc(C(C)(C)C)n1C` [Example 137] yielded a Ki (rat CB2; rat CB2 (Ki, nM)) of 26 nM and a Ki (human CB2 receptors; human CB2 (Ki, nM)) of 55 nM.
